From EP4737450A1 (Longwood Pharmaceuticals (Hangzhou) Co., Ltd, priority 2023, dated 2025) come the findings set out here.

Structures are written as SMILES. Where two headings read alike, the source gives them in different places.

Experiment [1] concerns the target T1, plasma kallikrein (PKa) (Homo sapiens, UniProt P03952).
T1 construct: purchased R & D 2497-SE
The experiment in a line: Inhibitory activity against plasma kallikrein in vitro (fluorescence intensity enzyme assay, Pro-Phe-Arg-AMC substrate). Type of experiment: biochemical. The following applies: Pro-Phe-Arg-AMC substrate. An outline of the steps:
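Fluorescence intensity enzyme assay with 10 nM enzyme and 60 µM Pro-Phe-Arg-AMC (final concentrations). Compounds in DMSO, tested in duplicate over a dose series. IC50 from nonlinear regression curve fitting.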

For experiment [2], the target named is KLK1 (Homo sapiens, UniProt P06870). Kind of experiment: Inhibitory activity against KLK1 in vitro (biochemical assay). As to conditions: values given in µM. The text has this:
Test Example 1. Test of the inhibitory activities of the compounds of the present invention against plasma kallikrein (PKa), KLK1 and FXIa in vitro. […]

The target of experiment [3] is FXIa (Homo sapiens, UniProt P03951). The experiment in a line: Inhibitory activity against FXIa in vitro (biochemical assay). The following applies: values given in µM. How it is done:
Test Example 1. Test of the inhibitory activities of the compounds of the present invention against plasma kallikrein (PKa), KLK1 and FXIa in vitro.
PKK (R & D, Cat # 2497-SE) and Pro-Phe-Arg-AMC (Nanjing Peptide, Cat # NJP23946) solutions were prepared in reaction buffer (50 mM Tris-HCl, pH 7.5, 250 mM NaCl). The final concentrations of enzyme protein and Pro-Phe-Arg-AMC in the reaction mixture were 10 nM and 60 µM, respectively. The starting concentration of the positive reference substance Avoralstat was 100 nM, 3-fold dilution, 10 + 0 dose. 0.05 µL of compound in 100% DMSO was delivered to a 384-well plate by an acoustic liquid delivery technique (Echo665; nanoliter range). Compound duplex test. 5 µL of 2 × enzyme solution was transferred to a 384 reaction plate and centrifuged at 1000 rpm for 1 minute, incubated at 25°C for 15 minutes; 5 µL of 2 × Pro-Phe-Arg-AMC solution was transferred to a 384 reaction plate, centrifuged at 1000 rpm for 1 minute, incubated at 25°C for 3 hours. […] IC50 values and nonlinear regression curve fitting were obtained using GraphPad Prism software.

Setting [4] is: plasma kallikrein enzyme assay, read-out: PKa IC50.
Setting [5] is: PKa IC50, plasma kallikrein enzyme assay.

The term IC50 denotes the point on the concentration scale where inhibition reaches its midpoint.

Sequence of FXIa (P03951 388-625 limits assumed): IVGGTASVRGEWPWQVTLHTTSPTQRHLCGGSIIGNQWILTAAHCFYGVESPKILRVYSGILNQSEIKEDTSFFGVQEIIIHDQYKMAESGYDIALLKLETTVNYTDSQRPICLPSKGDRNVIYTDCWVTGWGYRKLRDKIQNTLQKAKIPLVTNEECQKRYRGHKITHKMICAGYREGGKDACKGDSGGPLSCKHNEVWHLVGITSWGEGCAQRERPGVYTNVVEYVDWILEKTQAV
Sequence of FXIa (P03951 19-387 partner limits assumed): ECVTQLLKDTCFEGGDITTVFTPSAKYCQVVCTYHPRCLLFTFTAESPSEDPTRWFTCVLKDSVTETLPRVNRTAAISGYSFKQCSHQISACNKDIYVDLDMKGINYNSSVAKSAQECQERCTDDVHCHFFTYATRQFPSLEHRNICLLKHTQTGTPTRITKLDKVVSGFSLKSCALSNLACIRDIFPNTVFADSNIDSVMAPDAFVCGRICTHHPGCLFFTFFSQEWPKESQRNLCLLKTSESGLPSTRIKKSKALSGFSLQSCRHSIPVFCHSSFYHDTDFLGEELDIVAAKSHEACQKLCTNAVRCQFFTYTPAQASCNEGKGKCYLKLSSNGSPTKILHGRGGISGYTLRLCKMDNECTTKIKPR
Sequence of KLK1 (P06870 25-262, species assumed): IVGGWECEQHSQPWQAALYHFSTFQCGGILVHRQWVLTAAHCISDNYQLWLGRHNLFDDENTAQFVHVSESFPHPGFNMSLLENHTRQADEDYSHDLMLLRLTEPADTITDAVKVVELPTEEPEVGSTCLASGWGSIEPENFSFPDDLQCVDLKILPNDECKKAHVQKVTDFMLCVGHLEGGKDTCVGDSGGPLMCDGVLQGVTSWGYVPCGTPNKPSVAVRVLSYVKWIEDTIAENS
T1 sequence (P03952 391-638 limits assumed): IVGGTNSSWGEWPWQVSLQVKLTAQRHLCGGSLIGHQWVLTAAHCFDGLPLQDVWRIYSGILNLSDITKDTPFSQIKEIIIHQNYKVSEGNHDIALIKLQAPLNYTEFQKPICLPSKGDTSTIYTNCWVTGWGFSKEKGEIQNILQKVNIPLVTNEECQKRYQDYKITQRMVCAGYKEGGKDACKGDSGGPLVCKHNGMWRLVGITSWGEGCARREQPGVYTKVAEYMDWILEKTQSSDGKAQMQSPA
T1 sequence (P03952 20-390 partner limits assumed): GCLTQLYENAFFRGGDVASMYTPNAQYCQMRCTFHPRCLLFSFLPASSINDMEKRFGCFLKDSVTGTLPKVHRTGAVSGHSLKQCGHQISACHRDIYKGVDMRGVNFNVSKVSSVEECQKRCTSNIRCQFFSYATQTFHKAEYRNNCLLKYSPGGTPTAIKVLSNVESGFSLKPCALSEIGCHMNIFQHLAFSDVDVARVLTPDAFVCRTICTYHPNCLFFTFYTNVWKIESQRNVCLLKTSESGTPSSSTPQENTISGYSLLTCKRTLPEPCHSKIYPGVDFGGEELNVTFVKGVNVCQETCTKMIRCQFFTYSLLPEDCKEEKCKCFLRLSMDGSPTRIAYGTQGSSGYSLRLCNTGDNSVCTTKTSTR

For `N=C(N)c1ccc(CNC(=O)c2cnn(Cc3ccc(CC4CC4)c(F)c3)c2)cc1` [Compound 262], the IC50 in experiment [1] (setting [4]) is 2.67 nM; in experiment [2], more than 10 µM; in experiment [3] it was more than 10 µM.
Turning to `COc1ccnc(CNC(=O)c2cn(Cc3ccc(Cn4ccccc4=O)cc3)nc2C2C(C)(C)C2(F)F)c1F` (stereo not drawn) [Compound 263], the IC50 in experiment [1] (setting [4]) was 0.59 nM; in experiment [2], more than 10 µM; in experiment [3], more than 10 µM.
In the case of `CCOc1cc(Cn2cc(C(=O)NCc3ccc(C(=N)N)cc3)cn2)ccc1CC1CC1` [Compound 264], the IC50 is 0.82 nM in experiment [1] (setting [4]), more than 10 µM in experiment [2] and more than 10 µM in experiment [3].
For the compound `N=C(N)c1ccc(CNC(=O)c2cnn(Cc3ccc(CC4CC4)cc3)c2)c(F)c1` [Compound 270], the values for the IC50 in experiment [1] (setting [4]), in experiment [2] and in experiment [3] were 0.18 nM, more than 10 µM and more than 10 µM, respectively.
Take `Nc1ccnc(CNC(=O)c2cn(Cc3ccc(Cn4ccccc4=O)cc3)nc2C2COC2)c1F` [Compound 274]: the 50% inhibitory concentration (IC50) in experiment [1] (setting [4]) is 0.6 nM; in experiment [2], more than 10 µM; in experiment [3] it was more than 10 µM.
For `COc1ccc(Cl)c(CNC(=O)c2cn(Cc3ccc(Cn4ccccc4=O)cc3)nc2COCC2(F)COC2)c1F` [Compound 289], the IC50 was 2.31 nM in experiment [1] (setting [4]), more than 10 µM in experiment [2] and more than 10 µM in experiment [3].
As to `COc1ccnc(CNC(=O)c2cn(Cc3ccc(Cn4ccccc4=O)cc3)nc2N2CC(C)(O)C2)c1F` [Compound 296], the IC50 in experiment [1] (setting [5]) was 2.22 nM; in experiment [2], more than 10 µM; in experiment [3], more than 10 µM.
As for `CN(C)c1ccnc(CNC(=O)c2cn(Cc3ccc(Cn4ccccc4=O)cc3)nc2C2CC2(F)F)c1F` (stereo not drawn) [Compound 310], the results for the IC50 in experiment [1] (setting [4]), in experiment [2] and in experiment [3] were 1.6 nM, more than 10 µM and more than 10 µM, respectively.
Regarding `Cc1cc(C(=N)N)cc(C)c1CNC(=O)c1cnn(Cc2ccc(Cn3ccccc3=O)cc2)c1` [Compound 314], the IC50 in experiment [1] (setting [4]) was 0.32 nM; in experiment [2] it was more than 10 µM; in experiment [3], more than 10 µM.
Consider `N=C(N)c1ccc(CNC(=O)c2cnn(Cc3ccc(CC4CC4)cc3)c2)cc1F` [Compound 321], for which the IC50 in experiment [1] (setting [4]) was 2.71 nM; in experiment [2], more than 10 µM; in experiment [3], more than 10 µM.
`CN(C)c1ccnc(CNC(=O)c2cn(Cc3ccc(Cn4ccccc4=O)cc3)nc2C2COC2)c1F` [Compound 335]: the IC50 in experiment [1] (setting [4]) was 1.92 nM; in experiment [2] it was more than 10 µM; in experiment [3] it was more than 10 µM.
Regarding `O=C(NCc1ncc2cc[nH]c2c1F)c1cn(Cc2ccc(Cn3ccccc3=O)cc2)nc1C1COC1` [Compound 337, N-((7-fluoro-1H-pyrrolo[3,2-c]pyridin-6-yl)methyl)-3-(oxetan-3-yl)-1-(4-((2-oxopyridin-1(2H)-yl)methyl)benzyl)-1H-pyrazole-4-carboxamide], the IC50 is 2.23 nM in experiment [1] (setting [4]), more than 10 µM in experiment [2] and more than 10 µM in experiment [3].
Regarding `Cn1ccc2cnc(CNC(=O)c3cn(Cc4ccc(Cn5ccccc5=O)cc4)nc3C3COC3)c(F)c21` [Compound 338], the IC50 is 1.38 nM in experiment [1] (setting [4]), more than 10 µM in experiment [2] and more than 10 µM in experiment [3].
Turning to `N=C(N)c1ccc(CNC(=O)c2cnn(Cc3ccc(Cn4ccccc4=O)cc3)c2)c(F)c1` [Compound 341], the results for the IC50 in experiment [1] (setting [4]), in experiment [2] and in experiment [3] were 0.07 nM, more than 10 µM and more than 10 µM, respectively.
For `N=C(N)c1ccc(CNC(=O)c2cnn(Cc3cc(F)c(OCC4CC4)c(F)c3)c2)cc1` [Compound 345], the values for the half-maximal inhibitory concentration (IC50) in experiment [1] (setting [4]), in experiment [2] and in experiment [3] were 1.98 nM, more than 10 µM and more than 10 µM, respectively.
For `N=C(N)c1ccc(CNC(=O)c2cnn(Cc3c(Cl)cc(CC4CC4)cc3Cl)c2)cc1` [Compound 347], the IC50 is 1.04 nM in experiment [1] (setting [4]), more than 10 µM in experiment [2] and more than 10 µM in experiment [3].
Turning to `Cc1nc(C)n(Cc2ccc(Cn3cc(C(=O)NCc4ccc(C(=N)N)cc4F)cn3)cc2)n1` [Compound 351], the figures for the IC50 in experiment [1] (setting [4]), in experiment [2] and in experiment [3] were 1.13 nM, more than 10 µM and more than 10 µM, respectively.
Turning to `N=C(N)c1ccc(CNC(=O)c2cnn(Cc3ccc(Cn4ccccc4=O)cc3)c2)cn1` [Compound 353], the IC50 in experiment [1] (setting [4]) is 0.79 nM; in experiment [2], more than 10 µM; in experiment [3], more than 10 µM.
In the case of `N=C(N)c1ccc(CNC(=O)c2cnn(Cc3ccc(OC4CC4)cc3)c2)cc1` [Compound 354], the IC50 in experiment [1] (setting [4]) is 2.45 nM; in experiment [2] it was more than 10 µM; in experiment [3], more than 10 µM.
For the compound `Cc1cc(C)n(Cc2ccc(Cn3cc(C(=O)NCc4ccc(C(=N)N)cc4F)cn3)cc2)n1` [Compound 355], the IC50 is 0.12 nM in experiment [1] (setting [4]), more than 10 µM in experiment [2] and more than 10 µM in experiment [3].
Regarding `Cn1ccc2cnc(CNC(=O)c3cnn(Cc4ccc(Cn5ccccc5=O)cc4)c3)c(F)c21` [Compound 356], the IC50 was 2.23 nM in experiment [1] (setting [4]), more than 10 µM in experiment [2] and more than 10 µM in experiment [3].
As for `O=C(NCc1ncc2cc[nH]c2c1F)c1cn(Cc2ccc(Cn3ccccc3=O)cc2)nc1C(F)(F)F` [Compound 357], the values for the IC50 in experiment [1] (setting [4]), in experiment [2] and in experiment [3] were 1.9 nM, more than 10 µM and more than 10 µM, respectively.
`COCc1nn(Cc2ccc(Cn3ccccc3=O)cc2)cc1C(=O)NCc1ccc(C(=N)N)nc1` [Compound 361]: the IC50 in experiment [1] (setting [4]) is 0.09 nM; in experiment [2] it was more than 10 µM; in experiment [3], more than 10 µM.
`O=C(NCc1ncc2cc[nH]c2c1F)c1cnn(Cc2ccc(Cn3ccccc3=O)cc2)c1` [Compound 362, N-((7-fluoro-1H-pyrrolo[3,2-c]pyridin-6-yl)methyl)-1-(4-((2-oxopyridin-1(2H)-yl)methyl)benzyl)-1H-pyrazole-4-carboxamide]: the IC50 in experiment [1] (setting [4]) is 2.57 nM; in experiment [2] it was more than 10 µM; in experiment [3], more than 10 µM.
Turning to `COCc1nn(Cc2ccc(Cn3ccccc3=O)cc2)cc1C(=O)NCc1ncc2ccn(C)c2c1F` [Compound 363], the results for the IC50 in experiment [1] (setting [4]), in experiment [2] and in experiment [3] were 2.14 nM, more than 10 µM and more than 10 µM, respectively.
Turning to `COCc1nn(Cc2ccc(Cn3ccccc3=O)cc2)cc1C(=O)NCc1ncc2cc[nH]c2c1F` [Compound 364], the IC50 in experiment [1] (setting [4]) is 2.06 nM; in experiment [2] it was more than 10 µM; in experiment [3], more than 10 µM.
As to `N=C(N)c1ccc(CNC(=O)c2cnn(Cc3cc(F)c(OC4CC4)c(F)c3)c2)cc1` [Compound 365], the IC50 was 1.87 nM in experiment [1] (setting [4]), more than 10 µM in experiment [2] and more than 10 µM in experiment [3].
Regarding `Cc1cc(C)n(Cc2ccc(Cn3cc(C(=O)NCc4ccc(C(=N)N)cc4)cn3)cc2)n1` [Compound 366], the IC50 in experiment [1] (setting [4]) was 0.07 nM; in experiment [2], more than 10 µM; in experiment [3], more than 10 µM.
For the compound `N=C(N)c1ccc(CNC(=O)c2cnn(Cc3c(F)cc(N4CC5C(C4)C5(F)F)cc3F)c2)cc1` (stereo not drawn) [Compound 368], the figures for the IC50 in experiment [1] (setting [4]), in experiment [2] and in experiment [3] were 0.19 nM, more than 10 µM and more than 10 µM, respectively.
With `Cn1cc(F)c2cnc(CNC(=O)c3cnn(Cc4ccc(Cn5ccccc5=O)cc4)c3)c(F)c21` [Compound 370], the IC50 in experiment [1] (setting [4]) is 10.2 nM; in experiment [2], more than 10 µM; in experiment [3], more than 10 µM.
As to `COc1cc(Cn2cc(C(=O)NCc3ccc(C(=N)N)cc3)cn2)cc(OC)c1C(=O)C1CC1` [Compound 371], the IC50 in experiment [1] (setting [4]) is more than 100 nM; in experiment [2], more than 10 µM; in experiment [3] it was more than 10 µM.
`N=C(N)c1ccc(CNC(=O)c2cnn(Cc3cc(Cl)c(CC4CC4)c(Cl)c3)c2)cc1` [Compound 372]: the figures for the IC50 in experiment [1] (setting [4]), in experiment [2] and in experiment [3] were 0.85 nM, more than 10 µM and more than 10 µM, respectively.
`N=C(N)c1ccc(CNC(=O)c2cnn(Cc3ccc(CC4CC4)nc3)c2)cc1` [Compound 373]: the IC50 in experiment [1] (setting [4]) was 0.56 nM; in experiment [2] it was more than 10 µM; in experiment [3], more than 10 µM.
Turning to `N=C(N)c1ccc(CNC(=O)c2cnn(Cc3cnc(N4CC5C(C4)C5(F)F)c(F)c3)c2)cc1` (stereo not drawn) [Compound 374], the results for the IC50 in experiment [1] (setting [4]), in experiment [2] and in experiment [3] were 0.06 nM, more than 10 µM and more than 10 µM, respectively.
For `COc1cc(Cn2cc(C(=O)NCc3ccc(C(=N)N)cc3)cn2)cc(OC)c1CC1CC1` [Compound 375], the IC50 is 0.85 nM in experiment [1] (setting [4]), more than 10 µM in experiment [2] and more than 10 µM in experiment [3].
`Cn1cnc2cnc(CNC(=O)c3cnn(Cc4ccc(Cn5ccccc5=O)cc4)c3)c(F)c21` [Compound 377]: the IC50 is 1.42 nM in experiment [1] (setting [4]), more than 10 µM in experiment [2] and more than 10 µM in experiment [3].
Take `Cn1ccc2cnc(CNC(=O)c3cn(Cc4ccc(Cn5ccccc5=O)cc4)nc3C(F)(F)F)c(F)c21` [Compound 378]: the results for the half-inhibitory concentration (IC50) in experiment [1] (setting [4]), in experiment [2] and in experiment [3] were 1.41 nM, more than 10 µM and more than 10 µM, respectively.
For `N=C(N)c1ccc(CNC(=O)c2cnn(Cc3ccc(OC4CC4)c(C(F)(F)F)c3)c2)cc1` [Compound 379], the IC50 in experiment [1] (setting [5]) was 0.97 nM; in experiment [2], more than 10 µM; in experiment [3], more than 10 µM.
